Several values for one entry are separate records, joined by “and”; a condition that tells them apart may be missing. Equal entries are not always repeated. Entries after “also recorded” stand apart in the source; their conditions may differ. Where two headings read alike, the source gives them in different places.
Assays:
human cancers = conditions: pre-clinical studies; cited from earlier work
[1] = assay type: in vivo, human; conditions: for Total VPA / Free VPA: at PBMC sampling; for CL/F: CL/F (apparent total body clearance) Median +/− SD; for half-life: t1/2 Median +/− SD
[2] = tested on: children with newly diagnosed high-grade or brainstem gliomas; experiment: Ongoing phase II trial of VPA and radiation; assay type: in vivo, human; conditions: seven children; VPA trough concentrations of 85–115 mcg/ml
[3] = tested on: Histone H3 acetylation in PBMCs; experiment: PBMC histone H3 acetylation, sandwich ELISA; assay type: in vivo, human; conditions: for Post-VPA/Pre-VPA AcH3: steady state trough
[4] = tested on: children with refractory solid or CNS tumors; experiment: Phase 1 trial: dose-limiting and non-dose-limiting toxicities of oral VPA; assay type: in vivo, human; conditions: for Description of DLTs: cycle 1
[5] = tested on: Histone H4 acetylation in PBMCs; experiment: PBMC histone H4 acetylation, sandwich ELISA; assay type: in vivo, human; conditions: steady state trough
[6] = tested on: PBMC histone acetylation (AcH3 and AcH4); conditions: 4 hours after a dose of VPA; cited from earlier work
histone acetylation = conditions: at the time of maximal drug concentration; cited from earlier work
[7] = human, plasma, po, Steady State, Free VPA (n = 4), oral
[8] = human, plasma, po, Steady State, Total VPA (n = 4), oral
[9] = Cycle 1 (16 total cycle), 16 evaluable patients
[10] = Cycle 2 to 7 (15 total cycles), 16 evaluable patients

## CCCC(CCC)C(=O)O [VPA, Valproic acid]
Human cancers
  Threshold VPA concentration associated with anti-tumor activity: exceeded 100 mcg/ml
[1]; Patient 536584
  Total VPA: 81.0 µg/mL
[1]; Patient 712904
  Total VPA: 100.9 µg/mL
[1]; Patient 714036
  Total VPA: 109.0 µg/mL
[1]; Patient 734297
  Total VPA: 78.2 µg/mL
[1]; Patient 747001
  Free VPA: 19.1 µg/mL
  Total VPA: 90.9 µg/mL
[1]; Patient 752294
  Total VPA: 134.1 µg/mL
[1]; Patient 757318
  Free VPA: 36.6 µg/mL
  Total VPA: 90.1 µg/mL
[1]; Patient 769495
  Free VPA: 8.1 µg/mL
  Total VPA: 77.0 µg/mL
[1]; Patient 770059
  Free VPA: 11 µg/mL
  Total VPA: 105.7 µg/mL
[1]; Patient 770113
  Free VPA: 8 µg/mL
  Total VPA: 55.7 µg/mL
[1]; VPA concentration 75–100 mcg/ml, syrup and capsules (n = 2)
  Mean steady state VPA dose: 12.5 ± 3.5 mg/kg
[1]; VPA concentration 75–100 mcg/ml, syrup only (n = 4)
  Mean steady state VPA dose: 17.5 ± 2.9 mg/kg
[1]; VPA concentrations 100–150 mcg/ml, syrup and capsules (n = 8)
  Mean steady state VPA dose: 41.3 ± 20.7 mg/kg
[1]; VPA concentrations 100–150 mcg/ml, syrup only (n = 10)
  Mean steady state VPA dose: 36.0 ± 27.7 mg/kg
[1]; human, plasma, oral
  concentration at 9 weeks: 123 µg/mL
[1]; human, plasma, oral, 25 mg/kg/day
  concentration at 3 days: 172 µg/mL
[1]; human, plasma, po, 25 mg/kg/day
  Vd/F: 0.12 L/kg
[1]; human, plasma, po, 25 mg/kg/day, First dose, Total VPA (n = 4), oral
  CL/F: 0.2 mL/min/kg
[1]; [7]
  CL/F: 0.87 mL/min/kg
  half-life: 390 min
[1]; [8]
  CL/F: 0.133 mL/min/kg
  half-life: 684 min
[1]; starting dose 25 mg/kg/day divided b.i.d., trough above 100 mcg/ml
  Mean final dose of VPA: exceeded 50 mg/kg/day
[1]; t.i.d. dosing
  Number of dose escalations to achieve targeted concentrations (mean ± SD): 1.3 ± 0.5
[1]; t.i.d., starting dose 15 mg/kg/day
  Mean final dose of VPA: less than 20 mg/kg/day
[1]; total VPA concentration exceeded 125 mcg/ml, 8 measurements
  Free VPA concentration as % of total concentration (mean +/− SD): 44.9 +/− 15.8%
[1]; total VPA concentrations below 100 mcg/ml, 32 measurements
  Free VPA concentration as % of total concentration (mean +/− SD): 16.8 +/− 6.9%
[1]; total VPA concentrations between 100–125 mcg/ml, 17 measurements
  Free VPA concentration as % of total concentration (mean +/− SD): 21.3 +/− 11.5%
[1]; until total VPA concentrations exceeded 125 mcg/ml
  Fraction of free VPA: less than 0.25
[2]
  Toxicity of radiation and VPA: without encountering neuro-toxicities or other dose-limiting toxicities
[3]; 10 patients studied
  Patients with reduced post-treatment AcH3 and AcH4 levels in PBMCs: Five
[3]; 10 patients studied, at trough VPA exposure
  Patients with increased AcH3 and AcH4 levels in PBMCs: Five and 5 out of 10
[3]; Patient 712904
  Post-VPA/Pre-VPA AcH3: 0.75
[3]; Patient 714036
  Post-VPA/Pre-VPA AcH3: 0.93
[3]; Patient 734297
  Post-VPA/Pre-VPA AcH3: 1.51
[3]; Patient 747001
  Post-VPA/Pre-VPA AcH3: 0.43
[3]; Patient 757318
  Post-VPA/Pre-VPA AcH3: 1.44
[3]; Patient 769495
  Post-VPA/Pre-VPA AcH3: 1.38
[3]; Patient 770113
  Post-VPA/Pre-VPA AcH3: 0.90
[3]; of patients studied, steady state, H3 and H4
  Patients with increased PBMC histone acetylation: 50%
[4]; Cohort 0 (trough VPA level 75–100 mcg/ml), TID dosing
  Description of DLTs: None
[4]; Cohort 1 (trough VPA level 100–150 mcg/ml), BID dosing
  Description of DLTs: grade 3 somnolence; also recorded: Somnolence (1)
[4]; Cohort 1 (trough VPA level 100–150 mcg/ml), TID dosing
  Description of DLTs: grade-3 somnolence and grade-5 hemorrhage/hemothorax; also recorded: Somnolence (1) Pulmonary hemorrhage (1) Dyspnea (1) Hypoxia (1) Hypotension (1) Hypocalcemia (1)
[4]; [9]
  Anemia, non-dose limiting, maximum Grade 1: 3
  Anemia, non-dose limiting, maximum Grade 2: 2
  Anemia, non-dose limiting, maximum Grade 4: 1
  Dizziness, non-dose limiting, maximum Grade 1: 4
  Fatigue, non-dose limiting, maximum Grade 1: 3
  Fatigue, non-dose limiting, maximum Grade 2: 2
  Headache, non-dose limiting, maximum Grade 1: 1
  Headache, non-dose limiting, maximum Grade 2: 1
  Hypoalbuminemia, non-dose limiting, maximum Grade 1: 1
  Hypoalbuminemia, non-dose limiting, maximum Grade 2: 2
  Leukopenia, non-dose limiting, maximum Grade 1: 5
  Leukopenia, non-dose limiting, maximum Grade 2: 1
  Lymphopenia, non-dose limiting, maximum Grade 1: 4
  Lymphopenia, non-dose limiting, maximum Grade 2: 1
  Lymphopenia, non-dose limiting, maximum Grade 4: 1
  Nausea, non-dose limiting, maximum Grade 1: 1
  Nausea, non-dose limiting, maximum Grade 3: 1
  Neutropenia, non-dose limiting, maximum Grade 1: 1
  Somnolence, non-dose limiting, maximum Grade 2: 1
  Thrombocytopenia, non-dose limiting, maximum Grade 1: 6
  Thrombocytopenia, non-dose limiting, maximum Grade 2: 2
  Vomiting, non-dose limiting, maximum Grade 2: 2
[4]; [10]
  Anemia, non-dose limiting, maximum Grade 1: 2
  Anemia, non-dose limiting, maximum Grade 2: 1
  Dizziness, non-dose limiting, maximum Grade 1: 1
  Fatigue, non-dose limiting, maximum Grade 2: 1
  Headache, non-dose limiting, maximum Grade 2: 1
  Leukopenia, non-dose limiting, maximum Grade 2: 1
  Leukopenia, non-dose limiting, maximum Grade 3: 1
  Lymphopenia, non-dose limiting, maximum Grade 1: 2
  Lymphopenia, non-dose limiting, maximum Grade 3: 1
  Neutropenia, non-dose limiting, maximum Grade 2: 1
  Neutropenia, non-dose limiting, maximum Grade 3: 1
  Neutropenia, non-dose limiting, maximum Grade 4: 1
  Thrombocytopenia, non-dose limiting, maximum Grade 1: 2
  Thrombocytopenia, non-dose limiting, maximum Grade 4: 1
[5]; Patient 712904
  Post-VPA/Pre-VPA AcH4: 0.75
[5]; Patient 714036
  Post-VPA/Pre-VPA AcH4: 0.87
[5]; Patient 734297
  Post-VPA/Pre-VPA AcH4: 1.11
[5]; Patient 747001
  Post-VPA/Pre-VPA AcH4: 0.47
[5]; Patient 757318
  Post-VPA/Pre-VPA AcH4: 1.55
[5]; Patient 769495
  Post-VPA/Pre-VPA AcH4: 2.45
[5]; Patient 770113
  Post-VPA/Pre-VPA AcH4: 0.70
[6]
  Increases in AcH3 and AcH4 in PBMC: observed in all patients

## C/C=C1\NC(=O)[C@H]2CSSCC/C=C/[C@H](CC(=O)N[C@H](C(C)C)C(=O)N2)OC(=O)[C@H](C(C)C)NC1=O [depsipeptide]
Histone acetylation
  Histone hyper-acetylation: histone hyper-acetylation in all patients
